# Entries after “also recorded” stand apart in the source; their conditions may differ.
# B1: 10B6: rat anti-mouse endotrophin monoclonal antibody; light chain variable SEQ ID NO: 2, heavy chain variable SEQ ID NO: 4 (antibody, V domains shown)
# VH: QVQLQQSGPELAKPGSSVKISCKASGYTFTSYEMHWIKQRPGQGLEWIGYIYPESGSTGYNEKFKGKATLTVDKSSPTAYMQLSSLTPDNSAVYFCTRGLRVLGYVMDVWGHGTSVTVSS
# VL: DVQLTQSPSFLSASVGDRVTINCKASQNINKYLNWYQQKLGEAPKRLIYNTNNLQTGIPSRFSGSASGTDYTLTISSLHPEDFATYFCLQHSSLYTFGAGTKLELK
# Tests used:
# endotrophin+-tumors = assay: allografts of tumor pieces (Ctrl-tumor, ETP+-tumor) in wild-type hosts, cisplatin; assay type: in vivo, mouse; conditions: cisplatin 1 mg/kg, ip. twice a week
# Experimental: FIGS. 20A-20C. Endotrophin overexpression confers cisplatin resistance in PyMT mice. FIG. 20A. 10-weeks-aged PyMT and PyMT/endotrophin (PyMT/ETP) mice were given high dosage of cisplatin (2.5 mg/kg, ip., 2 times/week). Tumor growth was determined by caliper measurements. Data represent mean±SD (n=7-10/group). ***p<0.001, PyMT/CIS vs. PyMT/ETP/CIS by 2-way ANOVA. FIGS. 20B-20C. A piece of tumors taken from PyMT (Ctrl-tumor) and PyMT/endotrophin (ETP^+-tumor) mice were implanted into isogenic wild-type hosts. Cisplatin (1 mg/kg, ip., 2 times/week) were injected at 3-weeks post implantation for tumor progression. Tumor volume was determined by caliper measurement. […] Data represent mean±SD (n=7-8/group). *p<0.05 vs. Ctrl-tumors by 2-way ANOVA. Representative images were taken at 70-days post implantation. Scale: 10 mm.
# 4T1 = 4T1 xenograft in nude mice, cisplatin with 10B6 or IgG; assay type: in vivo; conditions: 28-days; cisplatin 1 mg/kg every 5 days, 10B6 100 μg/mouse once a week
# Experimental: (§1) FIGS. 22A-22E. Neutralizing endotrophin activities with monoclonal antibodies sensitizes tumors to cisplatin treatment. FIG. 22A. Pieces of tumors from PyMT mice were implanted into wild-type hosts. Tumor-bearing mice were given cisplatin (1 mg/kg, ip., every 5 days) or PBS, combined with either TZD (20 mg/kg) or anti-endotrophin monoclonal antibodies (100 μg/mouse, once a week) for tumor progression. Tumor volumes were determined by caliper measurements. Data represent mean±SD (n=5/group). *p<0.05, **p<0.01, ***p<0.001 vs. Cisplatin by 2-way ANOVA. FIGS. 22B-22D. 4T1 (0.5×10^6/mouse) cells were xenografted in nude mice and monitored tumor growth (FIG. 22B) and metastasis (FIG. 22C). […] Tumor volumes were determined by caliper measurements. […] Metastatic burden was determined by measuring metastatic lesion area in lung tissues with H&E stains. Quantified data represent mean±SD (n=5/group). **p=0.0007 and *p=0.0209 vs. CIS/10B6 by unpaired student t-test. mRNA levels for EMT markers such as vimentin, snail, slug, twist1, twist2 and S100S4 were determined by RT-qPCR (FIG. 22D). […]
# (§2) As a last step, therapeutic potential of a previously described endotrophin neutralizing antibody (clone 10B6) on cisplatin sensitivity was determined. […] Tumor regression was monitored for 2-months post implantation. […]
# tumors from PyMT mice = assay: allografts of PyMT tumor pieces, cisplatin with TZD or 10B6; assay type: in vivo; conditions: cisplatin 1 mg/kg every 5 days combined with TZD 20 mg/kg or 10B6 100 μg/mouse once a week; 2-months post implantation
# Experimental: as §1, §2
Molecule,response of endotrophin+-tumors compared to control (Ctrl)-tumors (endotrophin+-tumors),primary tumor growth of 4T1 (4T1),tumor growth / sensitization of the tumors to cisplatin treatment (tumors from PyMT mice)
"N.N.[Cl][Pt][Cl] [cisplatin, cis-diammine-dichloro-platinum]",more resistant; also recorded: increased cisplatin resistance,barely inhibited,–
B1,–,barely inhibited,efficiently sensitize

# Source: patent US10975142B2, “Endotrophin neutralization and use thereof” (THE BOARD OF REGENTS OF THE UNIVERSITY OF TEXAS SYSTEM, priority 2013, dated 2021)
